Measurements: patent US20160297768A1, “NOVEL IMIDAZOLE DERIVATIVES AND THERAPEUTIC USE THEREOF” (INDUSTRY-ACA-DEMIC COORPERATION FOUNDATION, YONSEI …, priority 2013, published 2016)

How the values were obtained:
A549 cells = experiment: Apoptotic activity by MTT analysis, A549 cells; type: cell-based; conditions: 15 μM of the compound, mean±standard deviation; for cytotoxicity at 15 µM: Homo sapiens, A549, 12 h, read-out: Apoptosis (%) A549 cells; for Apoptosis (%) A549 cells: 12 hours
Procedure: (§1) Lung cancer cells (A549), colorectal cancer cells (HCT116), HeLa cells, liver cancer cells (HepG2), T-cell leukemia cells (Jurkat), myeloid leukemia cells (K562), breast cancer cells (MCF-7 and MDA-MB-231) and myelocytic leukemia cells ([…]) were obtained from the American Type Culture Collection (ATCC), and cultured in 10% fetal bovine serum (FBS), 50 units/mL penicillin and 50 units/mL streptomycin-added RPMI 1640 (Invitrogen). The cells were maintained in a humidified 37° C., 5% CO2 atmosphere. The anticancer activity was detected by MTT analysis. Each type of cancer cells were plated in triplicate in a 96-well microtiter plate, and cultured at 37° C. for 24 hours. The cells were treated with each of the compounds prepared above at 37° C. for 12 hours. After the culturing of the cells, 10 μL of an MTT reagent ((3-[4,5-dimethyl-2-thiazolyl]-2,5-diphenyl-2H-tetrazoliumbromide) was added to each well, and cultured for 3.5 hours. The absorbance of each sample was detected using a UV microplate reader (SpectraMax 340PC 384, Molecular Devices) at 570 nm. The detection results were measured as a mean value. The effect of each compound on apoptosis is shown in Table 1.
(§2) The A549 and HeLa cells were treated with 15 μM of the compound for 12 hours. The apoptosis was detected using MTT (mean±standard deviation).

HeLa cells = experiment: Apoptotic activity by MTT analysis, HeLa cells; type: cell-based; conditions: 15 μM of the compound, mean±standard deviation; for cytotoxicity at 15 µM: Homo sapiens, HeLa, 12 h, read-out: Apoptosis (%) HeLa cells; for Apoptosis (%) HeLa cells: 12 hours
Procedure: as §1, §2

Compound | cytotoxicity at 15 µM (A549 cells) | cytotoxicity at 15 µM (HeLa cells) | Apoptosis (%) A549 cells (A549 cells) | Apoptosis (%) HeLa cells (HeLa cells)
COc1ccc(-c2nc(-c3cc(C(F)(F)F)cc(C(F)(F)F)c3)n(Cc3ccc(/C(N)=N/O)cc3)c2-c2ccc(OC)cc2)cc1 [Example 186, 4-((2-(3,5-bis(trifluoromethyl)phenyl)-4,5-bis(4-methoxyphenyl)-1H-imidazole-1-yl)methyl)-N′-hydroxybenzimidamide] | 5 ± 0.38% | 5 ± 0.27% | – | –
N=C(N)c1ccc(Cn2c(-c3cc(C(F)(F)F)cc(C(F)(F)F)c3)nc(-c3ccc(Br)cc3)c2-c2ccc(Br)cc2)cc1 [Example 181, 4-((2-(3,5-bis(trifluoromethyl)phenyl)-4,5-bis(4-bromophenyl)-1H-imidazole-1-yl)methyl)benzimidamide] | 93 ± 0.59% | 94 ± 1.26% | – | –
COc1ccc(-c2nc(-c3cc(C(F)(F)F)cc(C(F)(F)F)c3)n(Cc3ccc(C(=O)NCCCCCCCN)cc3)c2-c2ccc(OC)cc2)cc1 [Example 192, N-(7-aminoheptyl)-4-((2-(3,5-bis(trifluoromethyl)phenyl)-4,5-bis(4-methoxyphenyl)-1H-imidazole-1-yl)methyl)benzamide] | 80 ± 1.78% | 93 ± 0.56% | – | –
COc1ccc(-c2nc(-c3cc(C(F)(F)F)cc(C(F)(F)F)c3)n(Cc3ccc(C(=O)NO)cc3)c2-c2ccc(OC)cc2)cc1 [Example 117, 4-((2-(3,5-bis(trifluoromethyl)phenyl)-4,5-bis(4-methoxyphenyl)-1H-imidazole-1-yl)methyl)-N-hydroxybenzamide] | 43 ± 0.52% | 40 ± 1.67% | – | –
COc1cccc(-c2nc(-c3cc(C(F)(F)F)cc(C(F)(F)F)c3)n(Cc3ccc(C(=N)N)cc3)c2-c2cccc(OC)c2)c1 [Example 182, 4-((2-(3,5-bis(trifluoromethyl)phenyl)-4,5-bis(3-methoxyphenyl)-1H-imidazole-1-yl)methyl)benzimidamide] | 49 ± 0.82% | 49 ± 0.48% | – | –
COc1ccc(-c2nc(-c3ccc(C(F)(F)F)cc3)n(Cc3ccc(C(=O)NCCOCCOCCN)cc3)c2-c2ccc(OC)cc2)cc1 [Example 43, N-(2-(2-(2-aminoethoxy)ethoxy)ethyl)-4-((4,5-bis(4-methoxyphenyl)-2-(4-(trifluoromethyl)phenyl)-1H-imidazole-1-yl)methyl)benzamide] | 36 ± 0.86% | 38 ± 0.38% | – | –
NCCOCCOCCNC(=O)c1ccc(Cn2c(-c3cc(C(F)(F)F)cc(C(F)(F)F)c3)nc(-c3ccccc3Cl)c2-c2ccccc2Cl)cc1 [Example 123, N-(2-(2-(2-aminoethoxy)ethoxy)ethyl)-4-((2-(3,5-bis(trifluoromethyl)phenyl)-4,5-bis(2-chlorophenyl)-1H-imidazole-1-yl)methyl)benzamide] | 11 ± 0.7% | 8 ± 0.76% | – | –
NCCOCCOCCNC(=O)c1ccc(Cn2c(-c3cccc(C(F)(F)F)c3)nc(-c3ccc(Br)cc3)c2-c2ccc(Br)cc2)cc1 [Example 2, N-(2-(2-(2-aminoethoxy)ethoxy)ethyl)-4-((4,5-bis(4-bromophenyl)-2-(3-(trifluoromethyl)phenyl)-1H-imidazole-1-yl)methyl)benzamide] | 80 ± 1.16% | 88 ± 1.39% | – | –
Cc1ccc(-c2nc(-c3cc(C(F)(F)F)cc(C(F)(F)F)c3)n(Cc3ccc(C(=N)N)cc3)c2-c2ccc(C)cc2)cc1 [Example 183, 4-((2-(3,5-bis(trifluoromethyl)phenyl)-4,5-ditolyl-1H-imidazole-1-yl)methyl)benzimidamide] | 56 ± 1.07% | 56 ± 0.38% | – | –
COc1ccc(-c2nc(-c3cccc(C(F)(F)F)c3)n(Cc3ccc(C(=O)NCCOCCOCCN)cc3)c2-c2ccc(OC)cc2F)c(F)c1 [Example 68, N-(2-(2-(2-aminoethoxy)ethoxy)ethyl)-4-((4,5-bis(2-fluoro-4-methoxyphenyl)-2-(3-(trifluoromethyl)phenyl)-1H-imidazole-1-yl)methyl)benzamide] | 58 ± 1.48% | 89 ± 0.28% | – | –
COc1ccc(-c2nc(-c3cc(C(F)(F)F)cc(C(F)(F)F)c3)n(Cc3ccc(C(=O)NCCCCCCCCCCN)cc3)c2-c2ccc(OC)cc2)cc1 [Example 197, N-(10-aminodecyl)-4-((2-(3,5-bis(trifluoromethyl)phenyl)-4,5-bis(4-methoxyphenyl)-1H-imidazole-1-yl)methyl)benzamide] | 96 ± 0.54% | 97 ± 1.22% | – | –
COc1ccc(-c2nc(-c3ccc4c(c3)-c3ccccc3C4)n(Cc3ccc(C(=N)N)cc3)c2-c2ccc(OC)cc2)cc1 [Example 185, 4-((2-(9H-fluorene-3-yl)-4,5-bis(4-methoxyphenyl)-1H-imidazole-1-yl)methyl)benzimidamide] | 42 ± 1.15% | 42 ± 0.38% | – | –
COC(=O)c1cc(C(=O)OC)cc(-c2nc(-c3ccc(OC)cc3)c(-c3ccc(OC)cc3)n2Cc2ccc(C(=O)NCCOCCOCCN)cc2)c1 [Example 47, Dimethyl 5-(1-(4-(2-(2-(2-aminoethoxy)ethoxy)ethylcarbamoyl)benzyl)-4,5-bis(4-methoxyphenyl)-1H-imidazole-2-yl)isophthalate] | 37 ± 0.86% | 40 ± 0.7% | – | –
COc1ccc(-c2nc(-c3cc(C(F)(F)F)cc(C(F)(F)F)c3)n(Cc3ccc(C(=O)NCCCCCCCCN)cc3)c2-c2ccc(OC)cc2)cc1 [Example 193] | 77 ± 1.65% | 94 ± 1.02% | – | –
COc1ccc(-c2nc(-c3cc(C(F)(F)F)cc(C(F)(F)F)c3)n(Cc3ccc(C(=O)NCCCCCCN)cc3)c2-c2ccc(OC)cc2)cc1 [Example 191, N-(6-aminohexyl)-4-((2-(3,5-bis(trifluoromethyl)phenyl)-4,5-bis(4-methoxyphenyl)-1H-imidazole-1-yl)methyl)benzamide] | 78 ± 2.43% | 94 ± 1.64% | – | –
COc1cccc(-c2nc(-c3cccc(C(F)(F)F)c3)n(Cc3ccc(C(=O)NCCOCCOCCN)cc3)c2-c2cccc(OC)c2)c1 [Example 11, N-(2-(2-(2-aminoethoxy)ethoxy)ethyl)-4-((4,5-bis(3-methoxyphenyl)-2-(3-(trifluoromethyl)phenyl)-1H-imidazole-1-yl)methyl)benzamide] | 81 ± 1.26% | 87 ± 1.55% | – | –
COc1ccc(-c2nc(-c3cc(C#N)cc(C#N)c3)n(Cc3ccc(C(N)=O)cc3)c2-c2ccc(OC)cc2)cc1 [Example 108, 4-((2-(3,5-dicyanophenyl)-4,5-bis(4-methoxyphenyl)-1H-imidazole-1-yl)methyl)benzamide] | 2 ± 0.8% | 12 ± 1.26% | – | –
COc1ccc(-c2nc(-c3cc(C(F)(F)F)cc(C(F)(F)F)c3)n(Cc3ccc(C(N)=S)cc3)c2-c2ccc(OC)cc2)cc1 [Example 118, 4-((2-(3,5-bis(trifluoromethyl)phenyl)-4,5-bis(4-methoxyphenyl)-1H-imidazole-1-yl)methyl)benzothioamide] | 50 ± 0.41% | 50 ± 1.66% | – | –
COC(=O)c1cc(C(=O)OC)cc(-c2nc(-c3ccc(OC)cc3)c(-c3ccc(OC)cc3)n2Cc2ccc(C(=O)NCCOCCOCCN)cc2)c1 [Example 100, Dimethyl 5-(1-(4-(2-(2-(2-aminoethoxy)ethoxy)ethylcarbamoyl)benzyl)-4,5-bis(4-methoxyphenyl)-1H-imidazole-2-yl)isophthalate] | – | – | 31 ± 1.78% | 37 ± 1.54%
NCCOCCOCCNC(=O)c1ccc(Cn2c(-c3cc(C(F)(F)F)cc(C(F)(F)F)c3)nc(-c3ccc4c(c3)OCO4)c2-c2ccc3c(c2)OCO3)cc1 [Example 103, N-(2-(2-(2-aminoethoxy)ethoxy)ethyl)-4-((4,5-di(benzo[d][1,3]dioxol-5-yl)-2-(3,5-bis(trifluoromethyl)phenyl)-1H-imidazole-1-yl)methyl)benzamide] | 0% | 0% | – | –
NCCOCCOCCNC(=O)c1ccc(Cn2c(-c3cc(C(F)(F)F)cc(C(F)(F)F)c3)nc(-c3ccc(Cl)cc3)c2-c2ccc(Cl)cc2)cc1 [Example 189, N-(2-(2-(2-aminoethoxy)ethoxy)ethyl)-4-((2-(3,5-bis(trifluoromethyl)phenyl)-4,5-bis(4-chlorophenyl)-1H-imidazole-1-yl)methyl)benzamide] | – | – | 81 ± 0.45% | 86 ± 0.64%
CNC(=O)c1ccc(Cn2c(-c3cc(C(F)(F)F)cc(C(F)(F)F)c3)nc(-c3ccc(OC)cc3)c2-c2ccc(OC)cc2)cc1 [Example 119, 4-((2-(3,5-bis(trifluoromethyl)phenyl)-4,5-bis(4-methoxyphenyl)-1H-imidazole-1-yl)methyl)-N-methylbenzamide] | 39 ± 0.76% | 90 ± 1.73% | – | –
NCCOCCOCCNC(=O)c1ccc(Cn2c(-c3ccc(C(F)(F)F)cc3)nc(-c3ccccc3)c2-c2ccccc2)cc1 [Example 128, N-(2-(2-(2-aminoethoxy)ethoxy)ethyl)-4-((4,5-diphenyl-2-(4-(trifluoromethyl)phenyl)-1H-imidazole-1-yl)methyl)benzamide] | 77 ± 0.76% | 78 ± 1.61% | – | –
